Assay results taken from US11919887B2, “Substituted tetrahydrofurans as modulators of sodium channels” (Vertex Pharmaceuticals Incorporated, priority 2019, dated 2024).

target: human Nav 1.8 (Homo sapiens, UniProt Q9Y5Y9); test: E-VIPR assay detecting and measuring Nav inhibition (HEK cells expressing truncated human Nav 1.8); type: cell-based; settings: in the Absence of Human Serum in the E-VIPR Assay
Outline: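 HEK cells expressing truncated human Nav1.8, transduced with KIR2.1 BacMam, were loaded with CC2-DMPE/DiSBAC6(3) FRET dyes and tested under electrical stimulation (E-VIPR). Compounds were run as 11-point 3-fold dilutions, top 300 nM final, 0.625% DMSO, with or without 25% human serum.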

Sequence of human Nav 1.8 (Q9Y5Y9 whole entry, looked up, the tested form may be a part): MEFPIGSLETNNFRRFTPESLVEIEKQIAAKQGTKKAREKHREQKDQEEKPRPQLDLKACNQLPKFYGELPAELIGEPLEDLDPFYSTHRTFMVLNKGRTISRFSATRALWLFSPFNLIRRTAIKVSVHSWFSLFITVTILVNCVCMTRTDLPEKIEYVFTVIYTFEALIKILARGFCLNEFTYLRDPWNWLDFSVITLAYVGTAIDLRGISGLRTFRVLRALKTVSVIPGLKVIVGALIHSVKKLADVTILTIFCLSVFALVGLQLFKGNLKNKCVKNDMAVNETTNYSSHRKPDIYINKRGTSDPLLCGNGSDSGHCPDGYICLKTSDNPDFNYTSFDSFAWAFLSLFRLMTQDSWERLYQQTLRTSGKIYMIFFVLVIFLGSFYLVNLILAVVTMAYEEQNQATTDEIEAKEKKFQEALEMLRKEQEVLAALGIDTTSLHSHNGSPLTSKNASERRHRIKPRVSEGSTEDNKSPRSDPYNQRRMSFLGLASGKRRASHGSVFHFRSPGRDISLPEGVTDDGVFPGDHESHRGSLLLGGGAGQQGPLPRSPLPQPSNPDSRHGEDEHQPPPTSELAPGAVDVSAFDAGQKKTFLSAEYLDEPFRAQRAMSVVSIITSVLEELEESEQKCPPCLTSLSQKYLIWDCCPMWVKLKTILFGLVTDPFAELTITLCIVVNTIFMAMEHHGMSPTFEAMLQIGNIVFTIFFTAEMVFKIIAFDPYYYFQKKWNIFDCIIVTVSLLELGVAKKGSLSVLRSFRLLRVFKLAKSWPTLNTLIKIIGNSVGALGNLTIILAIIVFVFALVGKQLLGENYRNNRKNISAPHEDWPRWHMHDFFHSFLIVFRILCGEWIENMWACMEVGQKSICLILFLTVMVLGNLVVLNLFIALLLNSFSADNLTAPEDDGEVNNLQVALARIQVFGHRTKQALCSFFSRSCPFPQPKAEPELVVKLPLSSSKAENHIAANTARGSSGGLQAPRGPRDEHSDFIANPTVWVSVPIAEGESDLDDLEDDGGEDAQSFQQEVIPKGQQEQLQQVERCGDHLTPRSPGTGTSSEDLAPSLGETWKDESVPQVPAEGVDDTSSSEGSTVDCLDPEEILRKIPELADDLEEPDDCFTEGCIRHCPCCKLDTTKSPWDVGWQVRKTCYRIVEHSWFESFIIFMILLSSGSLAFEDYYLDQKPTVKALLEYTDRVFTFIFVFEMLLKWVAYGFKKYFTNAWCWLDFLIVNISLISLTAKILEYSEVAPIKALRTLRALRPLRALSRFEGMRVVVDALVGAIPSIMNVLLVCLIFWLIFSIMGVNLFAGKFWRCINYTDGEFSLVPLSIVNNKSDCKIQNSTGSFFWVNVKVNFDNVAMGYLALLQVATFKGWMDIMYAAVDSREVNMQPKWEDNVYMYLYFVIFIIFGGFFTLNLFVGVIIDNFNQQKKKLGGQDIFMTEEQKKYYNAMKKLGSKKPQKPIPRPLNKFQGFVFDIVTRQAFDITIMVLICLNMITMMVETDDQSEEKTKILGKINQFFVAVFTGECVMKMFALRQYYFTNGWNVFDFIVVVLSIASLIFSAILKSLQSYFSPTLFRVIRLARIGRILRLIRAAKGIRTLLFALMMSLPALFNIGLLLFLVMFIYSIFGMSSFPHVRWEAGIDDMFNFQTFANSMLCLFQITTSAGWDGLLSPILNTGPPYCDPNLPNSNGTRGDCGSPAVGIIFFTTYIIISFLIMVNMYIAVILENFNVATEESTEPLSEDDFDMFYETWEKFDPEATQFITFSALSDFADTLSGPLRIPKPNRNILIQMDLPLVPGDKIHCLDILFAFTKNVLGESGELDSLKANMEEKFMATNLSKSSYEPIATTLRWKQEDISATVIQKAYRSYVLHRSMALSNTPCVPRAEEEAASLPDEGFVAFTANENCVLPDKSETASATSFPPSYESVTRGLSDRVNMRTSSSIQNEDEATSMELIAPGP

Row | SMILES | IC50 [nM]
1 | [2H]c1cnc(C(N)=O)cc1NC(=O)[C@@H]1O[C@@](C)(C(F)(F)F)[C@@H](C)[C@H]1c1ccc(F)c(F)c1OC [Compound 124, 5-deuterio-4-[[(2R,3S,4S,5R)-3-(3,4-difluoro-2-methoxy-phenyl)-4,5-dimethyl-5-(trifluoromethyl)tetrahydrofuran-2-carbonyl]amino]pyridine-2-carboxamide] | < 10

same assay, conditions: in the Absence of Human Serum in the E-VIPR Assay; read-out: IC50

Row | SMILES | IC50 [nM]
2 | COc1c([C@H]2[C@H](C(=O)Nc3cccc(C(N)=O)n3)O[C@@](C)(C(F)(F)F)[C@H]2C)ccc(F)c1F [Compound 114, 6-[[(2R,3S,4S,5R)-3-(3,4-difluoro-2-methoxy-phenyl)-4,5-dimethyl-5-(trifluoromethyl)tetrahydrofuran-2-carbonyl]amino]pyridine-2-carboxamide] | 10 to 100
3 | COc1nc(C(F)F)ccc1[C@H]1[C@H](C(=O)Nc2ccnc(C(N)=O)c2)O[C@@](C)(C(F)(F)F)[C@H]1C (stereo in doubt) [Compound 140, rel-(2R,3S,4S,5R)-4-[[3-[6-(difluoromethyl)-2-methoxy-3-pyridyl]-4,5-dimethyl-5-(trifluoromethyl)tetrahydrofuran-2-carbonyl]amino]pyridine-2-carboxamide] | 10 to 100
4 | COc1c([C@H]2[C@H](C(=O)Nc3ccnc(C(N)=O)c3F)O[C@@](C)(C(F)(F)F)[C@H]2C)ccc(F)c1F [Compound 126, 4-[[(2R,3S,4S,5R)-3-(3,4-difluoro-2-methoxy-phenyl)-4,5-dimethyl-5-(trifluoromethyl)tetrahydrofuran-2-carbonyl]amino]-3-fluoro-pyridine-2-carboxamide] | < 10
5 | COc1c([C@H]2[C@H](C(=O)Nc3ccnc(C(N)=O)c3)O[C@@](C)(C(F)(F)F)[C@H]2C)ccc(C(F)F)c1F (single isomer, unassigned) [Compound 136] | < 10

same assay, conditions: in the Presence of Human Serum in the E-VIPR Assay

Row | SMILES | IC50 [nM]
6 | COc1c([C@@H]2[C@@H](C)[C@](C)(C(F)(F)F)O[C@H]2C(=O)Nc2ccnc(C(N)=O)c2)ccc(F)c1F (racemic) [Compound 35, rac-(2R,3S,4R,5R)-4-[[3-(3,4-difluoro-2-methoxy-phenyl)-4,5-dimethyl-5-(trifluoromethyl)tetrahydrofuran-2-carbonyl]amino]pyridine-2-carboxamide] | 100 to 1000

same assay, conditions: in the Presence of Human Serum in the E-VIPR Assay; read-out: IC50

Row | SMILES | IC50 [nM]
7 | COc1c([C@@H]2C[C@](C)(C(C)(F)F)O[C@H]2C(=O)Nc2ccnc(C(N)=O)c2)ccc(F)c1F (single isomer, unassigned) [Compound 86] | > 1000
8 | COc1c([C@H]2C[C@](C)(C(C)(F)F)O[C@@H]2C(=O)Nc2ccnc(C(N)=O)c2)ccc(F)c1F (single isomer, unassigned) [Compound 87] | 100 to 1000
9 | CC[C@H]1[C@@H](c2ccc(F)c(F)c2OC)[C@H](C(=O)Nc2ccnc(C(N)=O)c2)O[C@@]1(C)C(F)(F)F (racemic) [Compound 116, rac-(2R,3S,4S,5R)-4-[[3-(3,4-difluoro-2-methoxy-phenyl)-4-ethyl-5-methyl-5-(trifluoromethyl)tetrahydrofuran-2-carbonyl]amino]pyridine-2-carboxamide] | < 10
10 | C[C@H]1[C@@H](c2ccc(F)c(F)c2OC(F)F)[C@H](C(=O)Nc2ccnc(C(N)=O)c2)O[C@@]1(C)C(F)(F)F [Compound 11, (2R,3S,4S,5R)-4-[[3-[2-(difluoromethoxy)-3,4-difluoro-phenyl]-4,5-dimethyl-5-(trifluoromethyl)tetrahydrofuran-2-carbonyl]amino]pyridine-2-carboxamide] | < 10
11 | CNC(=O)c1cc(NC(=O)[C@@H]2O[C@@](C)(C(F)(F)F)[C@@H](C)[C@H]2c2ccc(F)cc2OC(F)F)ccn1 (single isomer, unassigned) [Compound 30] | 100 to 1000
12 | C[C@@H]1[C@H](c2ccc(F)c(F)c2OC(F)F)[C@@H](C(=O)Nc2ccnc(C(N)=O)c2)O[C@]1(C)C(F)(F)F [Compound 10, (2S,3R,4R,5S)-4-[[3-[2-(difluoromethoxy)-3,4-difluoro-phenyl]-4,5-dimethyl-5-(trifluoromethyl)tetrahydrofuran-2-carbonyl]amino]pyridine-2-carboxamide] | > 1000
13 | C[C@H]1[C@@H](c2ccc(F)c(F)c2OC(F)F)[C@H](C(=O)Nc2ccc(F)c(C(N)=O)c2)O[C@@]1(C)C(F)(F)F (single isomer, unassigned) [Compound 14] | > 1000
14 | COc1c([C@H]2[C@H](C(=O)Nc3cc[n+]([O-])c(C(N)=O)c3)O[C@@](C)(C(F)(F)F)[C@H]2C)ccc(F)c1F [Compound 19, (2R,3S,4S,5R)-4-[[3-(3,4-difluoro-2-methoxy-phenyl)-4,5-dimethyl-5-(trifluoromethyl)tetrahydrofuran-2-carbonyl]amino]-1-oxido-pyridin-1-ium-2-carboxamide] | < 10
15 | COc1c([C@@H]2C[C@@](C)(CC(F)(F)F)O[C@H]2C(=O)Nc2ccnc(C(N)=O)c2)ccc(F)c1F (single isomer, unassigned) [Compound 80] | > 1000
16 | COc1c([C@@H]2[C@@H](C)[C@@](C)(C(F)F)O[C@H]2C(=O)Nc2ccnc(C(N)=O)c2)ccc(F)c1F (stereo in doubt) [Compound 96, rel-(2R,3S,4R,5S)-4-[[3-(3,4-difluoro-2-methoxy-phenyl)-5-(difluoromethyl)-4,5-dimethyl-tetrahydrofuran-2-carbonyl]amino]pyridine-2-carboxamide] | > 1000
17 | COc1c([C@H]2[C@H](C(=O)Nc3ccnc(C(N)=O)c3)O[C@@](C)(C(F)(F)F)[C@H]2C)ccc(F)c1C(F)F (single isomer, unassigned) [Compound 44] | < 10
18 | COc1c([C@@H]2[C@H](C)[C@H](C(F)(F)F)O[C@H]2C(=O)Nc2ccnc(C(N)=O)c2)ccc(F)c1F (relative stereo) [Compound 24, rel-(2R,3S,4S,5R)-4-[[3-(3,4-difluoro-2-methoxy-phenyl)-4-methyl-5-(trifluoromethyl)tetrahydrofuran-2-carbonyl]amino]pyridine-2-carboxamide] | > 1000
19 | Cc1c(F)ccc([C@H]2C[C@@](C)(C(F)(F)F)O[C@@H]2C(=O)Nc2ccnc(C(N)=O)c2)c1F (single isomer, unassigned) [Compound 75] | > 1000
20 | CC[C@@]1(C(F)(F)F)C[C@H](c2ccc(F)c(F)c2OC)[C@@H](C(=O)Nc2ccnc(C(N)=O)c2)O1 (stereo in doubt) [Compound 63, rel-(2S,3R,5S)-4-[[3-(3,4-difluoro-2-methoxy-phenyl)-5-ethyl-5-(trifluoromethyl)tetrahydrofuran-2-carbonyl]amino]pyridine-2-carboxamide] | > 1000
21 | COc1cc(F)ccc1[C@H]1[C@H](C(=O)Nc2ccnc(C(N)=O)c2)O[C@](C)(C(F)(F)F)[C@H]1C (single isomer, unassigned) [Compound 40] | > 1000
22 | CNC(=O)c1cc(NC(=O)[C@@H]2O[C@](C)(C(F)(F)F)C[C@H]2c2ccc(F)c(Cl)c2OC)ccn1 (single isomer, unassigned) [Compound 59] | > 1000
23 | COc1c([C@@H]2[C@H](C)[C@H](C(F)(F)F)O[C@H]2C(=O)Nc2ccnc(C(N)=O)c2)ccc(F)c1F (relative stereo) [Compound 25, rel-(2S,3R,4R,5S)-4-[[3-(3,4-difluoro-2-methoxy-phenyl)-4-methyl-5-(trifluoromethyl)tetrahydrofuran-2-carbonyl]amino]pyridine-2-carboxamide] | < 10
24 | COc1cc(F)ccc1[C@@H]1[C@@H](C(=O)Nc2ccnc(C(N)=O)c2)O[C@](C)(C(F)(F)F)[C@@H]1C (single isomer, unassigned) [Compound 3b] | < 10
25 | CNC(=O)c1cc(NC(=O)[C@@H]2O[C@](C)(C(F)(F)F)[C@@H](C)[C@H]2c2ccc(F)c(F)c2OC(F)F)ccn1 (stereo in doubt) [Compound 12, rel-(2R,3S,4S,5S)-4-[[3-[2-(difluoromethoxy)-3,4-difluoro-phenyl]-4,5-dimethyl-5-(trifluoromethyl)tetrahydrofuran-2-carbonyl]amino]-N-methyl-pyridine-2-carboxamide] | > 1000
26 | COc1c([C@H]2C[C@](C)(CC(F)(F)F)O[C@@H]2C(=O)Nc2ccnc(C(N)=O)c2)ccc(F)c1F (single isomer, unassigned) [Compound 83] | 100 to 1000
27 | CC[C@]1(C(F)(F)F)C[C@@H](c2ccc(F)c(F)c2OC)[C@H](C(=O)Nc2ccnc(C(N)=O)c2)O1 (stereo in doubt) [Compound 64, rel-(2R,3S,5R)-4-[[3-(3,4-difluoro-2-methoxy-phenyl)-5-ethyl-5-(trifluoromethyl)tetrahydrofuran-2-carbonyl]amino]pyridine-2-carboxamide] | 10 to 100
28 | COc1c([C@H]2[C@H](C(=O)Nc3ccnc(C(N)=O)c3)OC(C)(C)[C@H]2C)ccc(F)c1F (single isomer, unassigned) [Compound 105] | 10 to 100
29 | C[C@]1(C(F)(F)F)C[C@@H](c2ccc(F)cc2OC(F)F)[C@H](C(=O)Nc2ccnc(C(N)=O)c2)O1 [compound 74] | 10 to 100
30 | COc1c([C@@H]2C[C@@](C)(C(F)(F)F)O[C@H]2C(=O)Nc2ccnc(C(N)=O)c2)ccc(F)c1Cl [Compound 23, (2R,3S,5S)-4-[[3-(3-chloro-4-fluoro-2-methoxy-phenyl)-5-methyl-5-(trifluoromethyl)tetrahydrofuran-2-carbonyl]amino]pyridine-2-carboxamide] | 10 to 100
31 | COc1c([C@@H]2C[C@@](C)(C(C)(F)F)O[C@H]2C(=O)Nc2ccnc(C(N)=O)c2)ccc(F)c1F (single isomer, unassigned) [Compound 84] | > 1000
32 | COc1cc(F)ccc1[C@H]1C[C@@](C)(C(F)(F)F)O[C@@H]1C(=O)Nc1ccnc(C(N)=O)c1 (stereo in doubt) [Compound 67, rel-(2S,3R,5S)-4-[[3-(4-fluoro-2-methoxy-phenyl)-5-methyl-5-(trifluoromethyl)tetrahydrofuran-2-carbonyl]amino]pyridine-2-carboxamide] | > 1000
